# ChEMBL document CHEMBL1201862, “PubChem BioAssay data set” (2004)
#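 96-well plates; 48 h exposure; 5 concentrations. Endpoints by linear interpolation between flanking doses. Not reached: highest tested concentration assigned. Abbreviation: GI50, concentration required for 50% inhibition of growth.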 Active and inactive are the calls of the source. Rule as the data show it: active = GI50 up to about 1.1 µM and inactive = higher.
# What was measured:
# Assay in all cases: inhibition of tumour cell growth, NCI panel, 48 h
# SK-MEL-5 = test system: SK-MEL-5
# M14 = test system: M14
# EKVX = test system: EKVX
# U-251 = test system: U-251
# SK-OV-3 = test system: SK-OV-3
# MOLT-4 = test system: MOLT-4
# SF-295 = test system: SF-295
# NCI-H226 = test system: NCI-H226
# IGROV-1 = test system: IGROV-1
# SK-MEL-28 = test system: SK-MEL-28
# HOP-62 = test system: HOP-62
# OVCAR-5 = test system: OVCAR-5
# LOX IMVI = test system: LOX IMVI
# SF-268 = test system: SF-268
# NCI-H522 = test system: NCI-H522
# KM12 = test system: KM12
# HL-60 = test system: HL-60
# A549 = test system: A549
# XF498 = test system: XF498
# UACC-62 = test system: UACC-62
# SK-MEL-2 = test system: SK-MEL-2
# K562 = test system: K562
# NCI-H460 = test system: NCI-H460
# Malme-3M = test system: Malme-3M
# HCT-116 = test system: HCT-116
# HOP-92 = test system: HOP-92
# SW-620 = test system: SW-620
# SF-539 = test system: SF-539
# DMS-273 = test system: DMS-273
# HCT-15 = test system: HCT-15
# CCRF-CEM = test system: CCRF-CEM
# OVCAR-8 = test system: OVCAR-8
# UO-31 = test system: UO-31
# DLD-1 = test system: DLD-1
# OVCAR-3 = test system: OVCAR-3
# HCC 2998 = test system: HCC 2998
# SR = test system: SR
# UACC-257 = test system: UACC-257
# KM-20L2 = test system: KM-20L2
# SNB-75 = test system: SNB-75
# TK-10 = test system: TK-10
# SNB-19 = test system: SNB-19
# LXFL 529 = test system: LXFL 529
# HT-29 = test system: HT-29
# RPMI-8226 = test system: RPMI-8226
# COLO 205 = test system: COLO 205
# OVCAR-4 = test system: OVCAR-4
# DMS-114 = test system: DMS-114
# 786-0 = test system: 786-0
# HOP-18 = test system: HOP-18
# SN12C = test system: SN12C
# M19-MEL = test system: M19-MEL
# ACHN = test system: ACHN
# NCI-H23 = test system: NCI-H23
# RXF 393 = test system: RXF 393
# CAKI-1 = test system: CAKI-1
# A498 = test system: A498
# SNB-78 = test system: SNB-78
compound,measurement,setting,value
C1=CC2SSSC2C1 (stereo unspecified),GI50,SK-MEL-5,> 100 µM (inactive)
same,GI50,M14,> 100 µM (inactive)
same,GI50,EKVX,> 100 µM (inactive)
same,GI50,U-251,> 100 µM (inactive)
same,GI50,SK-OV-3,> 100 µM (inactive)
same,GI50,MOLT-4,> 100 µM (inactive)
same,GI50,SF-295,> 100 µM (inactive)
same,GI50,NCI-H226,> 100 µM (inactive)
same,GI50,IGROV-1,> 100 µM (inactive)
same,GI50,SK-MEL-28,> 100 µM (inactive)
same,GI50,HOP-62,> 100 µM (inactive)
same,GI50,OVCAR-5,> 100 µM (inactive)
same,GI50,LOX IMVI,> 100 µM (inactive)
same,GI50,SF-268,> 100 µM (inactive)
same,GI50,NCI-H522,> 100 µM (inactive)
same,GI50,KM12,> 100 µM (inactive)
same,GI50,HL-60,> 100 µM (inactive)
same,GI50,A549,> 100 µM (inactive)
same,GI50,XF498,> 100 µM (inactive)
same,GI50,UACC-62,> 100 µM (inactive)
same,GI50,SK-MEL-2,> 100 µM (inactive)
same,GI50,K562,> 100 µM (inactive)
same,GI50,NCI-H460,> 100 µM (inactive)
same,GI50,Malme-3M,> 100 µM (inactive)
same,GI50,HCT-116,> 100 µM (inactive)
same,GI50,HOP-92,> 100 µM (inactive)
same,GI50,SW-620,> 100 µM (inactive)
same,GI50,SF-539,> 100 µM (inactive)
same,GI50,DMS-273,> 100 µM (inactive)
same,GI50,HCT-15,> 100 µM
same,GI50,CCRF-CEM,> 100 µM (inactive)
same,GI50,OVCAR-8,> 100 µM (inactive)
same,GI50,UO-31,> 100 µM (inactive)
same,GI50,DLD-1,> 100 µM (inactive)
same,GI50,OVCAR-3,> 100 µM (inactive)
same,GI50,HCC 2998,> 100 µM (inactive)
same,GI50,SR,> 100 µM (inactive)
same,GI50,UACC-257,> 100 µM (inactive)
same,GI50,KM-20L2,> 100 µM (inactive)
same,GI50,SNB-75,> 100 µM (inactive)
same,GI50,TK-10,> 100 µM (inactive)
same,GI50,SNB-19,> 100 µM (inactive)
same,GI50,LXFL 529,> 100 µM (inactive)
same,GI50,HT-29,> 100 µM (inactive)
same,GI50,RPMI-8226,> 100 µM (inactive)
same,GI50,COLO 205,> 100 µM (inactive)
same,GI50,OVCAR-4,> 100 µM (inactive)
same,GI50,DMS-114,> 100 µM (inactive)
same,GI50,786-0,> 100 µM (inactive)
same,GI50,HOP-18,> 100 µM (inactive)
same,GI50,SN12C,> 100 µM (inactive)
same,GI50,M19-MEL,> 100 µM (inactive)
same,GI50,ACHN,> 100 µM (inactive)
same,GI50,NCI-H23,> 100 µM (inactive)
same,GI50,RXF 393,> 100 µM (inactive)
CC(=O)NC(CCCNC(=O)N(CCCl)N=O)C(=O)NCc1ccccc1 (stereo unspecified),GI50,M14,> 100 µM (inactive)
same,GI50,EKVX,> 100 µM (inactive)
same,GI50,U-251,27.6 µM (inactive)
same,GI50,MOLT-4,38.5 µM (inactive)
same,GI50,SF-295,27.9 µM (inactive)
same,GI50,NCI-H226,> 100 µM (inactive)
same,GI50,IGROV-1,59.7 µM (inactive)
same,GI50,SK-MEL-28,> 100 µM (inactive)
same,GI50,HOP-62,40 µM (inactive)
same,GI50,SF-268,6.53 µM (inactive)
same,GI50,NCI-H522,> 100 µM (inactive)
same,GI50,CAKI-1,> 100 µM (inactive)
same,GI50,KM12,> 100 µM (inactive)
same,GI50,HL-60,24 µM (inactive)
same,GI50,A549,69.2 µM (inactive)
same,GI50,XF498,> 100 µM (inactive)
same,GI50,UACC-62,> 100 µM (inactive)
same,GI50,SK-MEL-2,> 100 µM (inactive)
same,GI50,K562,> 100 µM (inactive)
same,GI50,NCI-H460,2.32 µM (inactive)
same,GI50,Malme-3M,> 100 µM (inactive)
same,GI50,HCT-116,> 100 µM (inactive)
same,GI50,HOP-92,> 100 µM (inactive)
same,GI50,SW-620,> 100 µM (inactive)
same,GI50,SF-539,11.7 µM (inactive)
same,GI50,DMS-273,> 100 µM (inactive)
same,GI50,HCT-15,> 100 µM
same,GI50,CCRF-CEM,46.3 µM (inactive)
same,GI50,OVCAR-8,> 100 µM (inactive)
same,GI50,UO-31,> 100 µM (inactive)
same,GI50,DLD-1,58.6 µM (inactive)
same,GI50,OVCAR-3,> 100 µM (inactive)
same,GI50,HCC 2998,> 100 µM (inactive)
same,GI50,SR,35.6 µM (inactive)
same,GI50,UACC-257,> 100 µM (inactive)
same,GI50,KM-20L2,> 100 µM (inactive)
same,GI50,SNB-75,9.71 µM (inactive)
same,GI50,TK-10,> 100 µM (inactive)
same,GI50,SNB-19,22.6 µM (inactive)
same,GI50,LXFL 529,> 100 µM (inactive)
same,GI50,HT-29,> 100 µM (inactive)
same,GI50,RPMI-8226,> 100 µM (inactive)
same,GI50,COLO 205,> 100 µM (inactive)
same,GI50,OVCAR-4,> 100 µM (inactive)
same,GI50,DMS-114,> 100 µM (inactive)
same,GI50,786-0,6.87 µM (inactive)
same,GI50,HOP-18,> 100 µM (inactive)
same,GI50,SN12C,91.4 µM (inactive)
same,GI50,M19-MEL,> 100 µM (inactive)
same,GI50,ACHN,38.9 µM (inactive)
same,GI50,NCI-H23,> 100 µM (inactive)
same,GI50,RXF 393,> 100 µM (inactive)
CCOC(=O)/C(=C/c1ccccc1)N(CC)CC,GI50,SK-MEL-5,> 100 µM (inactive)
same,GI50,M14,> 100 µM (inactive)
same,GI50,EKVX,> 100 µM (inactive)
same,GI50,U-251,> 100 µM (inactive)
same,GI50,SK-OV-3,> 100 µM (inactive)
same,GI50,MOLT-4,> 100 µM (inactive)
same,GI50,SF-295,> 100 µM (inactive)
same,GI50,NCI-H226,> 100 µM (inactive)
same,GI50,IGROV-1,> 100 µM (inactive)
same,GI50,SK-MEL-28,> 100 µM (inactive)
same,GI50,HOP-62,> 100 µM (inactive)
same,GI50,OVCAR-5,> 100 µM (inactive)
same,GI50,LOX IMVI,94.4 µM (inactive)
same,GI50,SF-268,> 100 µM (inactive)
same,GI50,NCI-H522,> 100 µM (inactive)
same,GI50,CAKI-1,> 100 µM (inactive)
same,GI50,KM12,> 100 µM (inactive)
same,GI50,HL-60,> 100 µM (inactive)
same,GI50,A549,> 100 µM (inactive)
same,GI50,XF498,> 100 µM (inactive)
same,GI50,UACC-62,> 100 µM (inactive)
same,GI50,SK-MEL-2,> 100 µM (inactive)
same,GI50,K562,> 100 µM (inactive)
same,GI50,A498,> 100 µM (inactive)
same,GI50,NCI-H460,> 100 µM (inactive)
same,GI50,Malme-3M,> 100 µM (inactive)
same,GI50,HCT-116,> 100 µM (inactive)
same,GI50,HOP-92,> 100 µM (inactive)
same,GI50,SW-620,> 100 µM (inactive)
same,GI50,SF-539,> 100 µM (inactive)
same,GI50,DMS-273,> 100 µM (inactive)
same,GI50,HCT-15,> 100 µM
same,GI50,CCRF-CEM,62.2 µM (inactive)
same,GI50,OVCAR-8,> 100 µM (inactive)
same,GI50,UO-31,> 100 µM (inactive)
same,GI50,OVCAR-3,> 100 µM (inactive)
same,GI50,HCC 2998,> 100 µM (inactive)
same,GI50,SR,> 100 µM (inactive)
same,GI50,UACC-257,> 100 µM (inactive)
same,GI50,KM-20L2,> 100 µM (inactive)
same,GI50,TK-10,> 100 µM (inactive)
same,GI50,SNB-19,> 100 µM (inactive)
same,GI50,LXFL 529,> 100 µM (inactive)
same,GI50,HT-29,> 100 µM (inactive)
same,GI50,SNB-78,> 100 µM (inactive)
same,GI50,RPMI-8226,> 100 µM (inactive)
same,GI50,COLO 205,> 100 µM (inactive)
same,GI50,OVCAR-4,> 100 µM (inactive)
same,GI50,DMS-114,> 100 µM (inactive)
same,GI50,786-0,> 100 µM (inactive)
same,GI50,SN12C,> 100 µM (inactive)
same,GI50,M19-MEL,> 100 µM (inactive)
same,GI50,ACHN,> 100 µM (inactive)
same,GI50,NCI-H23,> 100 µM (inactive)
